In one experiment the target is T1, RecQ-WH (Escherichia coli, UniProt P15043).
T1 construct: coding for residues 408– 523 of E. coli RecQ; made in house; host or cells: E. coli BL21(DE3)
Nature of the experiment: Pull-down assay with immobilized protein and LSM libraries. On the set-up: species or system E. coli. The settings on record: 1:1 binding assumed, read-out: Surface mapping KD (apparent). The protocol: Pull-down assays with immobilized test proteins and foldameric LSM libraries were carried out. Proteins were equilibrated with LSM probes, and equilibrium bound fractions (FB) were determined from the unbound fractions measured by HPLC-MS methods. Hits were corrected with background binding of the resin. The protocol allowed all binding events to equilibrate irrespective of affinity, specificity, and binding kinetics. This was essential to judge overall druggability and promiscuity. Importantly, the concentration of protein and the total concentration of foldameric LSMs were equimolar, which minimized competition between the probes. This experimental setup approximated independent binding of individual library members. Results were visualized as heat maps of dissociation constants (Fig. 3).
Pull-down assay and data analysis
Pull-down assay. LSM sublibraries were screened separately as previously described.(2) Experiments were performed in the following buffers: (i) 20 mM pH 7.4 HEPES, 150 mM NaCl, 5 mM CaCl2 for CaM; (ii) 50 mM pH 7.4 HEPES, 150 mM NaCl, 1 mM TCEP, 1 mM CaCl2 for S100 proteins; (iii) 20 mM pH 7.4 HEPES, 150 mM NaCl, 1 mM TCEP for Gal-1 and (iv) 20 mM pH 7.4 HEPES, 150 mM NaCl for RecQ-WH. Assays were performed in paper filter spin cups (Thermo Scientific) with sample volumes of 100 µl. Hexahistidine-tagged proteins were immobilized on previously washed Co-NTA resin (TALON, Takara Bio USA, Inc., Mountain View, CA) in 64 µM final concentration. LSM sublibrary was added, in which each of the 64 library members were used at a concentration of 1 µM. Samples were incubated at room temperature for 30 min with shaking at 100 rpm. Then, samples were centrifuged at 1000 rpm for 2 min and washed with 100 µl pull-down buffer to remove unbound compounds.
The control experiments were performed using the same compounds and the resin but without the immobilized protein. In case of competitive assays, competitor peptides were added to LSM sublibrary samples in 200 µM final concentration. In the case of Gal-1, lactose (competitor) was used in a concentration of 10 mM. Experiments were performed at least twice. Mean […]
LC-MS methods and parameters. HPLC/ESI-MS analysis was used to characterize the samples from the pull-down assay. LC-MS analysis was performed with a Thermo Scientific Dionex UltiMate 3000 HPLC system interfaced to an LTQ ion trap mass spectrometer (Thermo Electron Corp., San Jose, CA, USA). Samples were injected onto an Aeris Widepore XB-C18 (250 x 4.6 mm) analytical HPLC column using gradient elution 5-80 % solution B during 25 minutes. For pull-down samples, eluent composition was 0.1% acetic acid in distilled water (Solution A) and 0.1% acetic acid in acetonitrile (solution B). Mass spectra were acquired in full scan mode from 200 to 2000 m/z range. For overlapping peaks, selective reaction monitoring (SRM) was […]
MS data analysis. Thermo Xcalibur 2.2 software was used for peak identification and integration. The majority of the foldameric fragments could be resolved independently via HPLC-MS/MS measurements based on molecular weight, MS fragmentation pattern and retention time. Peaks of some foldamers with β3-hIle or β3-hLeu in position R2 could not be resolved, these were integrated and averaged. In the processing method, each sample component was associated to a chromatographic peak based on previously identified mass (m/z) and retention time (ref (2) and Table S7-10). Using ICIS peak detection algorithm, the general detection and integration criteria were: smoothing points: 5, baseline window: 80, area noise factor: 5, peak noise factor: 10. Using these processing setups, all raw data files were reprocessed together and analyzed. Errors in peak identification during the automatic processing were corrected manually.
Calculation of the discussed parameters
1. Bound fractions (FB.) were calculated from the HPLC-MS intensity loss of the LSM probes compared to the control where no protein was immobilized to the resin: […]

In the next experiment the target is T2, CaM (Bos taurus, UniProt P62157).
T2 construct: made in house; host or cells: E. coli BL21 (DE3)
The description is as above. Format: binding, bovine. The settings on record: 1:2 stoichiometry assumed, read-out: Surface mapping KD (apparent). The method in brief:
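CaM buffer was 20 mM HEPES pH 7.4, 150 mM NaCl, 5 mM CaCl2. LSM sublibrary members ([…]) incubated 30 min, RT, with equimolar His-tagged protein on Co-NTA resin. HPLC-MS measured unbound probes; bound fraction relative to resin-only background gave dissociation constants.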

The target of the next experiment is T3, S100B (Homo sapiens, UniProt P04271).
T3 construct: made in house; host or cells: Escherichia coli BL21(DE3)
T3 sequence (P04271 1-92): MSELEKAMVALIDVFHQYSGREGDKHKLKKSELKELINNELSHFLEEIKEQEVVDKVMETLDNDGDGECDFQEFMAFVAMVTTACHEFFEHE
The description is as above. The conditions noted are these: 1:1 binding assumed, read-out: Surface mapping KD (apparent). Format: binding. In short, it runs like this:
(§1)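 Buffers were HEPES pH 7.4 with 150 mM NaCl, plus 1 mM TCEP and 1 mM CaCl2 (50 mM HEPES) for S100A4 and S100B, 1 mM TCEP for Gal-1, and no additive for RecQ-WH. Immobilized protein at 64 µM was equilibrated 30 min with the LSM sublibrary, and unbound probes were measured by LC-MS.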

In the next experiment the target is T4, S100A4 (Homo sapiens, UniProt P26447).
T4 construct: made in house; host or cells: Escherichia coli BL21(DE3)
The description is as above. It is filed as binding. The settings on record: 1:1 binding assumed, read-out: Surface mapping KD (apparent). The method in brief:
as §1

Experiment [1] has as its target T5, Gal-1 (Homo sapiens, UniProt P09382).
T5 construct: made in house; host or cells: E. coli BL21(DE3)
The description is as above. Format: binding. The settings on record: H12 library; 1:1 binding assumed; read-out: Surface mapping KD (apparent). The method in brief: as §1

In experiment [2] the target is T5, Gal-1. Nature of the experiment: Competition pull-down with lactose. It is filed as binding. The settings on record: H14 library; lactose 10 mM; read-out: Surface mapping KD (apparent), competition. In short, it runs like this: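 His6-tagged proteins immobilized on Co-NTA resin at 64 µM final with 64-member LSM foldamer sublibraries (1 M each, as printed) in pH 7.4 HEPES/NaCl buffers (Ca2+/TCEP per target), 30 min RT; competitor peptides 200 µM final, lactose 10 mM for Gal-1. Bound fractions from LC-MS loss vs protein-free resin; KD assuming 1:1 binding.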

Each structure is given as a SMILES string. Read-outs that look alike come from different tables or passages of the source.

T4 sequence (P26447 whole entry): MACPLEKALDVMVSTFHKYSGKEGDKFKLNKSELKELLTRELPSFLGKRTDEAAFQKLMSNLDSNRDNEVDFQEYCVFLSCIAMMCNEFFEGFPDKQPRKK
T1 sequence (P15043 408-523): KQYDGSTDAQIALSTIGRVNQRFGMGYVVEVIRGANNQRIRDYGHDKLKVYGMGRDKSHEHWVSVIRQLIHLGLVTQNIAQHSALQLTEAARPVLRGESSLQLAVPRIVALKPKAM
T5 sequence (P09382 whole entry): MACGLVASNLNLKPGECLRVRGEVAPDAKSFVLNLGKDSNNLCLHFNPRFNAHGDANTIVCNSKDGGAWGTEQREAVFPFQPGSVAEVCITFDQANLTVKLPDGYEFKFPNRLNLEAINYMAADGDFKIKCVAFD

On to `N=C(N)NCCC[C@@H](CC(=O)N[C@H]1CCCC[C@@H]1C(=O)N[C@H]1CCCC[C@@H]1C(=O)N[C@@H](CO)CC(=O)N[C@H]1CCCC[C@@H]1C(N)=O)NC(=O)[C@H]1CCCC[C@@H]1N` [H14 RS], for which the Kd on RecQ-WH (H14 library) was found to be 403 µM; at CaM (H14 library), 155 µM; at S100B (H14 library) it was 413 µM.

With `CC(C)C[C@@H](CC(=O)N[C@H]1CCCC[C@@H]1C(N)=O)NC(=O)[C@H]1CCCC[C@@H]1NC(=O)[C@H]1CCCC[C@@H]1NC(=O)C[C@H](CCCNC(=N)N)NC(=O)[C@H]1CCCC[C@@H]1N` [H14 RL], the Kd at RecQ-WH (H14 library) worked out at 237 µM; on CaM (H14 library), 10 µM; at S100B (H14 library) it was 31 µM; at S100A4 (H14 library) it was 51 µM.

With `N=C(N)NCCC[C@@H](CC(=O)N[C@H]1CCCC[C@@H]1C(=O)N[C@H]1CCCC[C@@H]1C(=O)N[C@@H](CC(N)=O)CC(=O)N[C@H]1CCCC[C@@H]1C(N)=O)NC(=O)[C@H]1CCCC[C@@H]1N` [H14 RN], the results for the Kd at RecQ-WH (H14 library), at CaM (H14 library) and on S100B (H14 library) were 439 µM, 185 µM and 212 µM, respectively.

As to `CC[C@H](C)[C@@H](CC(=O)N[C@H]1CCCC[C@@H]1C(N)=O)NC(=O)[C@H]1CCCC[C@@H]1NC(=O)[C@H]1CCCC[C@@H]1NC(=O)C[C@H](CCCNC(=N)N)NC(=O)[C@H]1CCCC[C@@H]1N` [H14 RI], the Kd at RecQ-WH (H14 library) was 237 µM; on CaM (H14 library), 10 µM; at S100B (H14 library) it was 31 µM; on S100A4 (H14 library), 51 µM.

As for `NCCCC[C@@H](CC(=O)N[C@H]1CCCC[C@@H]1C(N)=O)NC(=O)[C@H]1CCCC[C@@H]1NC(=O)[C@H]1CCCC[C@@H]1NC(=O)C[C@H](Cc1ccc(O)cc1)NC(=O)[C@H]1CCCC[C@@H]1N` [H14 YK], the Kd on RecQ-WH (H14 library) amounted to 411 µM; on CaM (H14 library) it was 17 µM; on S100B (H14 library), 89 µM; at S100A4 (H14 library), 146 µM.

`N=C(N)NCCC[C@@H](CC(=O)N[C@H]1CCC[C@@H]1C(=O)N[C@H]1CCC[C@@H]1C(N)=O)NC(=O)[C@H]1CCC[C@@H]1NC(=O)[C@H]1CCC[C@@H]1NC(=O)C[C@H](Cc1c[nH]c2ccccc12)NC(=O)[C@H]1CCC[C@@H]1NC(=O)[C@H]1CCC[C@@H]1N` [H12 WR]: the Kd on RecQ-WH (H12 library) came out at 206 µM; at CaM (H12 library) it was 226 µM; at S100B (H12 library), 15 µM; at S100A4 (H12 library), 326 µM.

In the case of `N=C(N)NCCC[C@@H](CC(=O)N[C@H]1CCCC[C@@H]1C(=O)N[C@H]1CCCC[C@@H]1C(=O)N[C@H](CC(=O)N[C@H]1CCCC[C@@H]1C(N)=O)Cc1c[nH]c2ccccc12)NC(=O)[C@H]1CCCC[C@@H]1N` [H14 RW], the Kd on RecQ-WH (H14 library) was found to be 201 µM; at CaM (H14 library), 0.6 µM; at S100B (H14 library), 13 µM; on S100A4 (H14 library), 56 µM.

Regarding `N=C(N)NCCC[C@@H](CC(=O)N[C@H]1CCC[C@@H]1C(=O)N[C@H]1CCC[C@@H]1C(N)=O)NC(=O)[C@H]1CCC[C@@H]1NC(=O)[C@H]1CCC[C@@H]1NC(=O)C[C@H](Cc1ccccc1)NC(=O)[C@H]1CCC[C@@H]1NC(=O)[C@H]1CCC[C@@H]1N` [H12 FR], the Kd is 388 µM on RecQ-WH (H12 library), 125 µM on CaM (H12 library), 141 µM at Gal-1 [1] and 28 µM on S100B (H12 library).

Consider `NC(=O)[C@H]1CCCC[C@@H]1NC(=O)C[C@H](CCC(=O)O)NC(=O)[C@H]1CCCC[C@@H]1NC(=O)[C@H]1CCCC[C@@H]1NC(=O)C[C@H](Cc1c[nH]c2ccccc12)NC(=O)[C@H]1CCCC[C@@H]1N` [H14 WE], for which the Kd on RecQ-WH (H14 library) worked out at 137 µM; on CaM (H14 library), 191 µM; on S100A4 (H14 library) it was 428 µM.

With `NCCCC[C@@H](CC(=O)N[C@H]1CCC[C@@H]1C(=O)N[C@H]1CCC[C@@H]1C(N)=O)NC(=O)[C@H]1CCC[C@@H]1NC(=O)[C@H]1CCC[C@@H]1NC(=O)C[C@H](Cc1ccccc1)NC(=O)[C@H]1CCC[C@@H]1NC(=O)[C@H]1CCC[C@@H]1N` [H12 FK], the Kd amounted to 337 µM on RecQ-WH (H12 library), 448 µM at CaM (H12 library), 246 µM at Gal-1 [1] and 37 µM on S100B (H12 library).

In the case of `NCCCC[C@@H](CC(=O)N[C@H]1CCC[C@@H]1C(=O)N[C@H]1CCC[C@@H]1C(N)=O)NC(=O)[C@H]1CCC[C@@H]1NC(=O)[C@H]1CCC[C@@H]1NC(=O)C[C@H](Cc1ccc(O)cc1)NC(=O)[C@H]1CCC[C@@H]1NC(=O)[C@H]1CCC[C@@H]1N` [H12 YK], the Kd turned out to be 280 µM at RecQ-WH (H12 library), 42 µM at CaM (H12 library), 371 µM on Gal-1 [1] and 86 µM on S100B (H12 library).

As for `NCCCC[C@@H](CC(=O)N[C@H]1CCCC[C@@H]1C(=O)N[C@H]1CCCC[C@@H]1C(=O)N[C@H](CC(=O)N[C@H]1CCCC[C@@H]1C(N)=O)Cc1ccc(O)cc1)NC(=O)[C@H]1CCCC[C@@H]1N` [H14 KY], the Kd on RecQ-WH (H14 library) stood at 407 µM; on CaM (H14 library) it was 36 µM; on S100B (H14 library), 63 µM.

Turning to `CC(C)C[C@@H](CC(=O)N[C@H]1CCCC[C@@H]1C(N)=O)NC(=O)[C@H]1CCCC[C@@H]1NC(=O)[C@H]1CCCC[C@@H]1NC(=O)C[C@H](CC(=O)O)NC(=O)[C@H]1CCCC[C@@H]1N` [H14 DL], the Kd worked out at 429 µM at RecQ-WH (H14 library) and 408 µM on Gal-1 [2].

Consider `CSCC[C@@H](CC(=O)N[C@H]1CCCC[C@@H]1C(N)=O)NC(=O)[C@H]1CCCC[C@@H]1NC(=O)[C@H]1CCCC[C@@H]1NC(=O)C[C@H](CCCNC(=N)N)NC(=O)[C@H]1CCCC[C@@H]1N` [H14 RM], for which the Kd at RecQ-WH (H14 library) was 294 µM; on CaM (H14 library), 30 µM; at S100B (H14 library), 79 µM; at S100A4 (H14 library), 94 µM.

Take `CC[C@H](C)[C@@H](CC(=O)N[C@H]1CCCC[C@@H]1C(N)=O)NC(=O)[C@H]1CCCC[C@@H]1NC(=O)[C@H]1CCCC[C@@H]1NC(=O)C[C@H](CC(=O)O)NC(=O)[C@H]1CCCC[C@@H]1N` [H14 DI]: the Kd at RecQ-WH (H14 library) turned out to be 429 µM; on Gal-1 [2], 408 µM.
